The source of these data is patent publication US20260097091A1, “ADMINISTRATION OF GLUTATHIONE TRISULFIDE TO AMELIORATE PERIPHERAL NEUROPATHY” (The General Hospital Corporation, priority 2022, published 2026).

Data set [1] is described as follows: water solubility of PTN-SSS. The format is physicochemical. An excerpt:
(§1) PTN-SSS was synthesized and provided by Kyowa Hakko Bio Co., Ltd. The purity of PTN-SSS is 96.3%, and PTN-SSS is highly water soluble (>50 g/L). PTN-SSS and PTN (Toronto Research Chemicals, Toronto, ON, Canada) were suspended in distilled water. PTN-SSS is stable in solution at pH 4.0-9.0 at room temperature for at least 4 days. In the PTN-SSS study, distilled water was used as the vehicle alone.

Data set [2] deals with primary DRG neurons. Nature of the data set: primary DRG neurons exposed to paclitaxel: Sholl analysis and axonal mitochondria (NF200, MitoTracker). It counts as cell-based, mice. To be noted: 500 nM PTNSSS with 100 nM paclitaxel for one hour. The method, then:
Primary DRG neurons were prepared from 8 to 10-week old mice as described previously. Briefly, lumber DRG (L1 to L6) were isolated from mice and centrifuged at 176×g (1000 rpm) for 3 minutes. After aspirating the solution, DRG were incubated with Dispase-II Solution (Sigma-Aldrich, Cat No. SCM133) and collagenase type II (Worthington, Cat No. LS004176) for 70 minutes and with 0.25% trypsin for 5 minutes. Subsequently triturated by frame polished glass pipet, neurons were seeded on a 12-well plate with 15 mm coverslip. Cells were incubated in Neurobasal A-medium with 2% B27 supplement (Gibco, Cat No. 10889038), 1% penicillin/streptomycin, 1% Glutamax (Gibco, Cat No. 35050061), and nerve growth factor (Sigma Aldrich, Cat No. N6009) for 24 hours. After 24 hours, they were exposed to 100 nM of paclitaxel with or without 500 nM of GSSSG or PTNSSS for one hour and 50 nM of MitoTracker (Invitrogen, Cat No. M22426) for 30 minutes. After fixing by 4% paraformaldehyde for 10 minutes at room temperature, cells were immersed in 0.2% Triton X-100 in PBS for 7 minutes and washed by PBS. They were incubated with anti-NF200 antibody (1:400, mouse, Sigma-Aldrich, Cat No. N0142) overnight at 4° C. and with the secondary antibody (1:1000, donkey anti-mouse, Abcam, Cat No. ab150105) for one hour at room temperature. After being covered with fluoroshield mounting medium with DAPI (Sigma-Aldrich, Cat No. F6057), 9-10 cells per group (3 mice per group) were imaged on confocal microscopy (ZEISS LSM 800, Carl Zeiss, Thornwood, NY) using a 63× oil immersion objectives lens with 1,024×1,024 pixels image size.
Effects of PTNSSS and GSSSG on axonal integrity were examined in cultured murine primary DRG neurons incubated with paclitaxel. […] Morphology of neurons, the number, length, and branching of neurites, was analyzed by Sholl analysis implemented in ImageJ [30]. Sholl analysis draws equally spaced circles from the soma and counts the number of intersections between neurites and circles to quantify neuronal morphology (FIG. 8C).

Data set [3] in a line: stability of PTN-SSS in solution. It counts as physicochemical. To be noted: pH 4.0-9.0 at room temperature.
Excerpt: as §1

Data set [4] is described as follows: tissue distribution of orally administered ^34S-labeled GSSSG by LC-MS/MS. It counts as in vivo, mice. To be noted: 2 hours after oral 50 mg/kg. Here is the method:
To determine the tissue distribution of orally-administered GSSSG, ^34S-labelled GSSSG was administered by gavage to each of four mice. ^34S-labelled GSSSG was synthesized and provided by Kyowa Hakko Bio CO., LTD. Two hours after a single dose of ^34S-GSSSG, DRG, lumber spinal cord, brain, liver, and plasma were obtained and snap frozen for later analysis.
We examined whether administrated GSSSG via oral gavage reaches peripheral nervous system using liquid chromatography with tandem mass spectrometry (LC-MS/MS). Fifty mg/kg of ^34S-labeled GSSSG (in which the middle sulfur, that is a sulfane sulfur, was replaced to ^34S; G-^32S-^34S-^32S-G) was orally administered to mice. Two hours after administration, plasma and tissue from liver, brain, lumbar spinal cord, and lumbar DRG (L1 to L6) were collected and immediately frozen at −80° C. Tissues were homogenized with 5 mM of β-(4-hydroxyphenyl)ethyl iodoacetamide (HPE-IAM) (Santa Cruz, Cat No. SC-473766) and incubated for 20 minutes at 37° C. to promote HPE-IAM reaction that stabilizes persulfide residues. Proteins were removed by centrifugation at 15,000 g for 10 minutes at 4° C., and total protein concentration was measured by BCA assay. The supernatant was diluted by 0.1% formic acid for LC-MS/MS analysis. The amount of ^34S-labeled GSSSG was quantified in selective reaction monitoring (SRM) with precursor ion (647.14 m/z), product ion (389.1 m/z), and HCD (21 v) and normalized by protein concentration. The ratio of ^34S-labeled reactive sulfur species to endogenous (^32S) reactive sulfur species (GSSH, CysSSH, and CysSSSCys) were also calculated from their peak area measured by Dionex UltiMate 3000 RS UPLC-Orbitrap Exploris 480 mass spectrometer (Thermo Scientific Scientific, Waltham, MA, USA). In brief, samples were subjected to the UPLC system with a Hypersil Gold C-18 (100×2.1 mm, 3.0 μm, Thermo Fisher Scientific) column and they were eluted by using a linear methanol gradient of the mobile phase (0-90%, 15 minutes) in the presence of 0.1% formic acid at a flow rate of 0.2 ml/minutes at 40 degrees. The raw data were obtained by Compound Discoverer software 3.3. Molecular weight of reactive sulfur species combined with HPE-IAM were reported in previous studies.

Bounds are passed on as bounds.

In data set [1], `CC(C)(CO)[C@@H](O)C(=O)NCCC(=O)NCCSSSCCNC(=O)CCNC(=O)[C@H](O)C(C)(C)CO` [PTN-SSS, pantethine trisulfide] registered a water solubility of over 50 mg/mL. For the same compound, the “axonal length (Sholl analysis)” value in data set [2] is given as “prevented the axonal shortening induced by paclitaxel”. Further, the stable in solution result in data set [3] is on record as “at least 4 days”.
On to `N[C@@H](CCC(=O)N[C@@H](CS[34S]SC[C@H](NC(=O)CC[C@H](N)C(=O)O)C(=O)NCC(=O)O)C(=O)NCC(=O)O)C(=O)O` [^34S-labelled GSSSG], for which, in data set [4] (all 4 tissues), the “ratio of ^34S-labelled CysSSH to endogenous CysSSH” value is on record as “more than 10 fold” and the “ratio of ^34S-labelled CysSSSCys to endogenous CysSSSCys” value is “more than 10 fold”. The “ratio of ^34S-labelled GSSH to endogenous GSSH” value in data set [4] (all 4 tissues (lumber DRG, lumber spinal cord, brain, liver)) was “more than 10 fold”. Besides, in data set [4] (mice), the “average concentration of ^34S-labelled GSSSG in brain” value stood at 142 pmol/mg protein, the “average concentration of ^34S-labelled GSSSG in liver” value amounted to 158 pmol/mg protein, the “average concentration of ^34S-labelled GSSSG in lumber DRG” value was 415 pmol/mg protein and the “average concentration of ^34S-labelled GSSSG in lumber spinal cord” value turned out to be 518 pmol/mg protein.
